Reference: paper PMC10817917, “Alkyl deoxyglycoside-polymyxin combinations against critical priority carbapenem-resistant gram-negative bacteria” (Scientific Reports, 2024)
Where two headings read alike, the source gives them in different places.

Experiments:
Test in all cases: Broth microdilution MIC/MBC, glycosides with or without polymyxins
E. coli ATCC 25922 = assay type: cell-based, Escherichia coli; conditions: for MIC: Escherichia coli, ATCC25922
E. coli NCTC 13846 = assay type: cell-based, Escherichia coli; conditions: strain B
E. cloacae CQ1941 = assay type: cell-based; conditions: for MIC: Enterobacter cloacae, CQ1941
[1] = alone, read-out: MICA (MIC of each compound individually)
[2] = combination with the lowest FICI

With `CCCCCCCCCCCCO[C@H]1C[C@H](O)[C@@H](O)[C@H](C)O1` [Compound 3, dodecyl 2,6-dideoxy-α-L-arabino-hexopyranoside] the “MIC of colistin in combination with the compound” value (“MIC … with the compound” for short) (E. coli ATCC 25922; Cpd conc. 0.4 μg/mL, strain A) was 0.5 µg/mL, the “MIC … with the compound” value (E. coli ATCC 25922; Cpd conc. 0.8 μg/mL, strain A) was 0.5 µg/mL and the “MIC … with the compound” value (E. coli ATCC 25922; Cpd conc. 3.125 μg/mL, strain A) was 0.25 µg/mL. For the same compound, the “MIC … with the compound” value (E. coli ATCC 25922; Cpd conc. 6.25 μg/mL, strain A) was 0.25 µg/mL, the “MIC … with the compound” value (E. coli ATCC 25922; Cpd conc. 12.5 μg/mL, strain A) was 0.25 µg/mL and the “MIC … with the compound” value (E. coli ATCC 25922; Cpd conc. […], strain A) was 0.5 µg/mL. The MIC (E. coli ATCC 25922; agent alone, no adjuvant (polymyxin conc. 0), strain A, read-out: MIC) was > 100 µg/mL, the MIC (E. coli ATCC 25922; [1]) was > 100 µg/mL and the “MIC of compound in combination with PMB” value (E. coli ATCC 25922; PMB 0.25 μg/mL, strain A) was 3.1 µg/mL. The “MIC of compound in combination with PMB” value (E. coli ATCC 25922; PMB 0.5 μg/mL, strain A) was ≤ 0.1 µg/mL, the “MIC of compound in combination with colistin” value (E. coli ATCC 25922; colistin 0.06 μg/mL, strain A) was > 100 µg/mL and the “MIC of compound in combination with colistin” value (E. coli ATCC 25922; colistin 0.125 μg/mL, strain A) was > 100 µg/mL. The “MIC of compound in combination with colistin” value (E. coli ATCC 25922; colistin 0.25 μg/mL, strain A) was 3.1 µg/mL, the “MIC of compound in combination with colistin” value (E. coli ATCC 25922; colistin 0.5 μg/mL, strain A) was ≤ 0.1 µg/mL and the “MICA(A + B) (MIC of compound in combination with colistin)” value (E. coli ATCC 25922; [2]) was 3.125 µg/mL. The “MICB(A + B) (MIC of colistin in combination with compound)” value (E. coli ATCC 25922; [2]) was 0.25 µg/mL, the “Interpretation (of FICI)” value (E. coli ATCC 25922; compound + colistin) was “Additive (from 0.5 to 1.0 were additive)” and the FICI (E. coli ATCC 25922; compound + colistin, lowest FICI) was 0.52. For the same compound, the “MIC … with the compound” value (E. coli NCTC 13846; Cpd conc. 0.4 μg/mL) was > 0.5 µg/mL, the “MIC … with the compound” value (E. coli NCTC 13846; Cpd conc. 0.8 μg/mL) was > 0.5 µg/mL and the “MIC … with the compound” value (E. coli NCTC 13846; Cpd conc. 3.125 μg/mL) was > 0.5 µg/mL. For the same compound, the “MIC … with the compound” value (E. coli NCTC 13846; Cpd conc. 6.25 μg/mL) was > 0.5 µg/mL, the “MIC … with the compound” value (E. coli NCTC 13846; Cpd conc. 12.5 μg/mL) was > 0.5 µg/mL and the “MIC … with the compound” value (E. coli NCTC 13846; Cpd conc. […]) was > 0.5 µg/mL. The MIC (E. coli NCTC 13846; Escherichia coli, NCTC13846, agent alone, no adjuvant (polymyxin conc. 0), read-out: MIC) was > 100 µg/mL, the “MIC of compound in combination with PMB” value (E. coli NCTC 13846; PMB 0.25 μg/mL) was > 100 µg/mL and the “MIC of compound in combination with PMB” value (E. coli NCTC 13846; PMB 0.5 μg/mL) was > 100 µg/mL. The “MIC of compound in combination with colistin” value (E. coli NCTC 13846; colistin 0.06 μg/mL) was > 100 µg/mL, the “MIC of compound in combination with colistin” value (E. coli NCTC 13846; colistin 0.125 μg/mL) was > 100 µg/mL and the “MIC of compound in combination with colistin” value (E. coli NCTC 13846; colistin 0.25 μg/mL) was > 100 µg/mL. The “MIC of compound in combination with colistin” value (E. coli NCTC 13846; colistin 0.5 μg/mL) was > 100 µg/mL, the “MIC … with the compound” value (E. cloacae CQ1941; Cpd conc. 0.4 μg/mL, strain D) was 0.5 µg/mL and the “MIC … with the compound” value (E. cloacae CQ1941; Cpd conc. 0.8 μg/mL, strain D) was 0.5 µg/mL. The “MIC … with the compound” value (E. cloacae CQ1941; Cpd conc. 3.125 μg/mL, strain D) was 0.25 µg/mL, the “MIC … with the compound” value (E. cloacae CQ1941; Cpd conc. 6.25 μg/mL, strain D) was 0.25 µg/mL and the “MIC … with the compound” value (E. cloacae CQ1941; Cpd conc. 12.5 μg/mL, strain D) was 0.25 µg/mL. For the same compound, the “MIC … with the compound” value (E. cloacae CQ1941; Cpd conc. […], strain D) was 0.25 µg/mL, the MIC (E. cloacae CQ1941; agent alone, no adjuvant (polymyxin conc. 0), strain D, read-out: MIC) was > 100 µg/mL and the MIC (E. cloacae CQ1941; [1]) was > 100 µg/mL. The “MIC of compound in combination with PMB” value (E. cloacae CQ1941; PMB 0.5 μg/mL, strain D) was ≤ 0.1 µg/mL, the “MIC of compound in combination with colistin” value (E. cloacae CQ1941; colistin 0.06 μg/mL, strain D) was > 100 µg/mL and the “MIC of compound in combination with colistin” value (E. cloacae CQ1941; colistin 0.125 μg/mL, strain D) was > 100 µg/mL. For the same compound, the “MIC of compound in combination with colistin” value (E. cloacae CQ1941; colistin 0.25 μg/mL, strain D) was 1.6 µg/mL, the “MIC of compound in combination with colistin” value (E. cloacae CQ1941; colistin 0.5 μg/mL, strain D) was ≤ 0.1 µg/mL and the “MICA(A + B) (MIC of compound in combination with colistin)” value (E. cloacae CQ1941; [2]) was 1.6 µg/mL. The “MICB(A + B) (MIC of colistin in combination with compound)” value (E. cloacae CQ1941; [2]) was 0.25 µg/mL.
